Key:
Format in all cases: cell-based, Saccharomyces cerevisiae
[1] = system: PPIs identified as affected by the SH3 domain deletions; experiment: Liquid DHFR-PCA low-throughput validation of PPIs affected by SH3 deletion (Fig. S1D-E); conditions: label = prey, liquid DHFR-PCA, prey _1 = lost, _2 = gained in screen
Procedure: Liquid DHFR-PCA low-throughput experiments were performed to validate the PPIs identified as affected by the SH3 domain deletions in the high-throughput solid DHFR-PCA screen (256 PPIs weaker or lost and 116 PPIs stronger or gained following domain deletions). Mating and the diploid selection were performed as described for the large-scale experiment, with the exception that the plates were in 384 formats. Following the second diploid selection, diploid cells were inoculated in a 96 v-shaped well plate using a robotically manipulated 96 pin tool in a synthetic complete medium with MSG at pH 6.0 with NAT and HPH. After 48 h of growth, optical density (OD) was read using a TECAN Infinite F200 Pro, and dilutions to 1 OD in sterile nanopure water were prepared. Cells were then diluted to 0.1 OD by combining 25 µl of cell suspension at OD = 1 and 225 µl of PCA selection media without agar in a 96-wells plate. Plates were incubated at 30 °C in a TECAN Infinite M Nano and OD was monitored each 15 min for 72 h.

[2] = system: ABP1; experiment: DHFR-PCA on solid medium, bait ABP1 (Fig. 1B); conditions: bait ABP1, label = prey; for medrep (log2 median colony size normalized to plate background, PCA score): 2-4 replicates; for Ratio (SH3-deleted/WT medrep): only significant differences showed, PPIs completely lost have a ratio of 0.1 and the gained PPIs 2.5
Excerpt: Supplement 41467_2021_21873_MOESM8_ESM.xlsx, sheet "Fig1B" | column: medsize; medrep; Ratio; Score

[3] = system: Abp1 PPIs; experiment: DHFR-PCA of Abp1 SH3-swapped baits (Fig. 2B-D, S2C, S2F); conditions: Fig2B; bait ABP1, label = prey; Replicates 4
Excerpt: Having determined that multiple PPIs require SH3s, we asked whether the latter establish PPI specificity independently from their host proteins by swapping domains (Fig. 2A). Using the second round of genome editing, we individually replaced Abp1 SH3 with the 27 yeast SH3s and 3 human Abp1 orthologs’ SH3s (CTTN, HCLS1, and DBNL, Fig. 2B). The reintroduction of its own SH3 (Abp1SH3 in Abp1) reconstitutes almost perfectly Abp1’s interaction profile (Kendall’s τ = 0.93, Fig. 2B). […] No homologous SH3 domain fully re-establishes the normal Abp1 PPI profile (Fig. 2B and Supplementary Fig. 2C). However, we observe a significant correlation (cophenetic correlation = 0.20, p value = 0.005, Fig. 2C) between the similarity of PPI profiles (Fig. 2B) and the sequence similarity of the SH3s. […] Nonetheless, a subset of SH3-dependent PPIs is only observed with the endogenous domain. For instance, Hua2 and App1, both well-characterized partners of Abp1[14],[18],[19], are only detected when Abp1 contains its own SH3 (WT or swapped via editing). A given SH3 may therefore not be fully replaceable with other paralogous or orthologous domains. This pattern is confirmed by cellular growth phenotypic analyses (Supplementary Fig. 2D, E). PPIs, SH3 sequence similarity, and growth profiles under stress conditions are correlated (Supplementary Fig. 2D, E). This relationship is particularly clear when analyzing growth on media supplemented with hygromycin.
The stuffing of YSC84 SH3 rendered the strain sterile and was therefore not used for this study as the assays require crosses. For genes containing two SH3s (BZZ1 and BEM1), a combination of this first stuffer with a second one ([…]) coding for a highly similar linker ([…]) was used, which allowed targeting each SH3 position independently. The two N-terminal domains of SLA1, which are separated by six nucleotides, were stuffed by a single stuffer. Cells containing pCAS were selected via the G418 resistance cassette from the plasmid on YPD plates (YPD + NAT 100 μg/ml (DHFR F[1,2] selection) + G418 200 µg/mL (Bioshop Canada)). Colonies were randomly selected and grown in YPD media without G418 to allow plasmid loss. The correct insertion of the stuffer was validated by PCR and Sanger sequencing. The SH3-swapped, -shuffled, and -mutated strains were constructed following a second CRISPR–Cas9 editing step with the same procedures. The stuffer sequences were targeted by specific gRNAs (one gRNA per stuffer) and replaced by PCR amplified specific SH3 (with 40 bp homology arms) or libraries of mutated SH3 domains for Deep Mutational Scanning (DMS) with 78 bp flanking homology regions. Validation of the SH3 domain insertions was done as we previously described except for DMS libraries (see below).
The overall DHFR-PCA pipeline is based on Tarassov et al.[43] and the procedures have also been published as a visualized protocol. The screens were performed with robotically manipulated pin tools (BM5-SC1, S&P Robotics Inc.). First, the preys were cherry-picked from 96-well plates to omnitrays in a 384 format on YPD + HPH solid media. Plates were then combined into the 1536 format on YPD + HPH. The array was constituted of 575 preys previously shown to interact physically with at least one SH3-containing protein as reported in BioGRID V3.4.16 along with 40 negative controls. The prey array comprised a border of control strains of two rows and two columns corresponding to the PPI between LSM8-DHFR F[1,2] and CDC39-DHFR F[3]. This double border was used to remove border effects. Preys are present in duplicate at a randomized position in the 1536 array (except for YAL041W which is present four times per array). Baits were crossed with two prey plates, resulting in four independent bait–prey tests for each PPI. Baits were grown in liquid YPD + NAT and then transferred on solid YPD + NAT omnitrays. They were then replicated on YPD + NAT omnitrays in 1536 array format. […]

YPR184W_2
Ratio (Deletedscore / WTscore) ([1]; bait LSB3): 1.832

YOR181W_1
Ratio (Deletedscore / WTscore) ([1]; bait BBC1): 0.634
Ratio (Deletedscore / WTscore) ([1]; bait LSB1): 0.5295
Ratio (Deletedscore / WTscore) ([1]; bait LSB3): 0.6909
Ratio (Deletedscore / WTscore) ([1]; bait MYO3): 0.5123
Ratio (Deletedscore / WTscore) ([1]; bait MYO5): 0.7615
Ratio (Deletedscore / WTscore) ([1]; bait PIN3): 0.5418

YDL229W_1
Ratio (Deletedscore / WTscore) ([1]; bait CDC25): 0.6311

YBL017C_2
Ratio (Deletedscore / WTscore) ([1]; bait ABP1): 1.35
Ratio (Deletedscore / WTscore) ([1]; bait LSB3): 1.844

YLR370C_1
Ratio (Deletedscore / WTscore) ([1]; bait BZZ1-1): 0.6354

YDR170C_1
Ratio (Deletedscore / WTscore) ([1]; bait RVS167): 0.751

YGL206C_1
Ratio (Deletedscore / WTscore) ([1]; bait BBC1): 0.7295
Ratio (Deletedscore / WTscore) ([1]; bait BOI1): 1.003
Ratio (Deletedscore / WTscore) ([1]; bait HOF1): 0.9141

YLL040C_1
Ratio (Deletedscore / WTscore) ([1]; bait LSB3): 0.505

YDR265W_2
Ratio (Deletedscore / WTscore) ([1]; bait BEM1-1): 1.494
Ratio (Deletedscore / WTscore) ([1]; bait): 1.155

YIL062C_2
Ratio (Deletedscore / WTscore) ([1]; bait HSE1): 1.213

YGL206C_2
Ratio (Deletedscore / WTscore) ([1]; bait BEM1-2): 1.078
Ratio (Deletedscore / WTscore) ([1]; bait BZZ1-1): 0.8702
Ratio (Deletedscore / WTscore) ([1]; bait BZZ1-2): 1.646

YPR154W (EYVEALYQFDPQQDGDLGLKPGDKVQLLEKLSPEWYKGSCNGRTGIFPANYVKPAF)
medrep (log2 median colony size normalized to plate background, PCA score) [2]: 1.556

YBL017C
medrep (log2 median colony size normalized to plate background) [3]: 1.647
medsize (median colony size) [3]: 447.5
medrep (log2 median colony size normalized to plate background, PCA score) [2]: 2.711
Ratio (SH3-deleted/WT medrep) [2]: 1.6455

YER166W_1
Ratio (Deletedscore / WTscore) ([1]; bait RVS167): 0.4913

YDR170C_2
Ratio (Deletedscore / WTscore) ([1]; bait ABP1): 1.267
Ratio (Deletedscore / WTscore) ([1]; bait LSB3): 1.852

YAL005C_2
Ratio (Deletedscore / WTscore) ([1]; bait BOI1): 0.8346
Ratio (Deletedscore / WTscore) ([1]; bait CYK3): 1.208
Ratio (Deletedscore / WTscore) ([1]; bait HOF1): 1.323
Ratio (Deletedscore / WTscore) ([1]; bait): 1.478

YKL013C_1
Ratio (Deletedscore / WTscore) ([1]; bait BZZ1-1): 0.9908
Ratio (Deletedscore / WTscore) ([1]; bait BZZ1-2): 1.121
Ratio (Deletedscore / WTscore) ([1]; bait MYO5): 0.8543

YIL062C_1
Ratio (Deletedscore / WTscore) ([1]; bait BZZ1-1): 0.7418

YBR109C_1
Ratio (Deletedscore / WTscore) ([1]; bait MYO5): 0.9988

YDR170C
medrep (log2 median colony size normalized to plate background, PCA score) [2]: 2.657
Ratio (SH3-deleted/WT medrep) [2]: 1.547

YDL229W_2
Ratio (Deletedscore / WTscore) ([1]; bait BOI1): 1.5

YBR234C_1
Ratio (Deletedscore / WTscore) ([1]; bait BUD14): 0.744

YER155C_1
Ratio (Deletedscore / WTscore) ([1]; bait BOI1): 0.8689
Ratio (Deletedscore / WTscore) ([1]; bait BOI2): 0.775
Ratio (Deletedscore / WTscore) ([1]; bait BUD14): 0.7098
